# Measured values reported in ChEMBL document CHEMBL4665919, “Novel Tricyclic Pyroglutamide Derivatives as Potent RORγt Inverse Agonists Identified using a Virtual Screening Approach” (ACS Med Chem Lett, 2020).
# Legend:
# [1] = Half life in human liver microsomes; format: ADME, Microsome
# [2] = Kinetic solubility of compound in 0.1 N HCK solvent at pH 1; format: physicochemical; settings: 0.1 N HCl (printed 0.1 N HCK), read-out: Kinetic_solubility
# [3] = Clearance in BALB/c mouse at 2 mg/kg, iv; format: ADME, organism-based; settings: in vivo
# [4] = AUC in BALB/c mouse at 2 mg/kg, iv; format: ADME, organism-based; set-up: dose 2 mg/kg; settings: in vivo
# [5] = biological target: T1, Oxysterols receptor LXR-alpha (Homo sapiens, UniProt Q13133); test: Inverse agonist activity at LXRalpha (unknown origin)
# T1 sequence (Q13133 whole entry): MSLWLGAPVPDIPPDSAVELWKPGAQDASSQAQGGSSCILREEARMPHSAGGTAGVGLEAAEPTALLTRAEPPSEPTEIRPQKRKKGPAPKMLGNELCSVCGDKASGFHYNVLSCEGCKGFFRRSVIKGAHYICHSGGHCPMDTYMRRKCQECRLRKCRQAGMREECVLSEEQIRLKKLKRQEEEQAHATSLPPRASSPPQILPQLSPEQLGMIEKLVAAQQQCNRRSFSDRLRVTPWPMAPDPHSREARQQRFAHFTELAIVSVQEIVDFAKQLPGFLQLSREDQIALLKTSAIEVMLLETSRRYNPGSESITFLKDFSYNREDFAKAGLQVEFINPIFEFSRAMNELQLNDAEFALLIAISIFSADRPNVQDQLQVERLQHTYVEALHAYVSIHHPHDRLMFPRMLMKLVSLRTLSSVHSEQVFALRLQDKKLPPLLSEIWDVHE
# [6] = biological target: T2, Nuclear receptor ROR-beta (Homo sapiens, UniProt Q92753); test: Inverse agonist activity at Gal4-fused RORbeta (unknown origin)
# T2 sequence (Q92753 whole entry): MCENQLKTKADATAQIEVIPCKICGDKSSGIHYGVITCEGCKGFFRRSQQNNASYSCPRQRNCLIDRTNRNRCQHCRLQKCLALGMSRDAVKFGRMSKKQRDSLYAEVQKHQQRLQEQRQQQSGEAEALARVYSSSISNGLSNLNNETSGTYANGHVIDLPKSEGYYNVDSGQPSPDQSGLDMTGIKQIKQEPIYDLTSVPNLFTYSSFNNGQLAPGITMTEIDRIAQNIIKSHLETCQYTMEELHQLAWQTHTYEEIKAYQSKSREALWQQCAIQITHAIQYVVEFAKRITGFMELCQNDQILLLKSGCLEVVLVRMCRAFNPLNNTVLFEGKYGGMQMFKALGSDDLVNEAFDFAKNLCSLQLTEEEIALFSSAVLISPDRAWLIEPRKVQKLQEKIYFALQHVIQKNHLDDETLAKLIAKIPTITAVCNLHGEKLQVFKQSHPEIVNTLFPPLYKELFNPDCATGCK
# [7] = test system: HepG2; test: Cytotoxicity against human HepG2 cells assessed as reduction in cell viability
# [8] = Kinetic solubility of compound in acetate buffer at pH 4; format: physicochemical; settings: read-out: Kinetic_solubility
# [9] = biological target: T3, Oxysterols receptor LXR-beta (Homo sapiens, UniProt P55055); test: Inverse agonist activity at LXRbeta (unknown origin)
# T3 sequence (P55055 whole entry): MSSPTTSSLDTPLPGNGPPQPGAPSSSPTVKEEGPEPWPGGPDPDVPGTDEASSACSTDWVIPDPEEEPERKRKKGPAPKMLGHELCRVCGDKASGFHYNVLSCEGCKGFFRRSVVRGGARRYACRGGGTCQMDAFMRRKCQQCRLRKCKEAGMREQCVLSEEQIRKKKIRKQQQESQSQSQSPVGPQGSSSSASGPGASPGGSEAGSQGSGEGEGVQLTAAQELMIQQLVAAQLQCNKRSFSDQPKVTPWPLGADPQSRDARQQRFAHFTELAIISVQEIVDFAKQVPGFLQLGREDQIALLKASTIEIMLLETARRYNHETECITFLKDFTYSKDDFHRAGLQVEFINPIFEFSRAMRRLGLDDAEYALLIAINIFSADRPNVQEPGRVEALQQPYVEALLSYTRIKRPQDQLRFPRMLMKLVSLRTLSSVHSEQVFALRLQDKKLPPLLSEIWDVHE
# [10] = biological target: Cytochrome P450 2C19 (Homo sapiens, UniProt P33261); test: Inhibition of CYP2C19 (unknown origin); format: ADME
# Sequence of Cytochrome P450 2C19 (P33261 whole entry): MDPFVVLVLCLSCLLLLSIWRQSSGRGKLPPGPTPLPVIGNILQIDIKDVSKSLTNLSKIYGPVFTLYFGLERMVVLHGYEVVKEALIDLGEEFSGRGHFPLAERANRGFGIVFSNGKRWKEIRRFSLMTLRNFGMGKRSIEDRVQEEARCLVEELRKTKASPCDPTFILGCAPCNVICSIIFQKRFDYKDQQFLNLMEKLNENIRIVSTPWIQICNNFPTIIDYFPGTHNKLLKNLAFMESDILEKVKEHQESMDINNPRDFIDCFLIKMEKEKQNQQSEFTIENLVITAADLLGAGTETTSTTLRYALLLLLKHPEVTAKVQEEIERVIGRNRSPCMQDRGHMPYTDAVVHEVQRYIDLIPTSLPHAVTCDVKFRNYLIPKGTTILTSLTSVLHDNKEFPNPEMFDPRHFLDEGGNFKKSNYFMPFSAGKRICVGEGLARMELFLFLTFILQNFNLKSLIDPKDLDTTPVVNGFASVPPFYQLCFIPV
smiles,measurement,setting,value
CC(C)(O)CN1C(=O)[C@H](F)C[C@H]1C(=O)N1CC[C@@]2(S(=O)(=O)c3ccc(F)cc3)c3ccc(C(F)(C(F)(F)F)C(F)(F)F)cc3CC[C@@H]12,half-life,[1],> 2 h
same,solubility kinetic,[2],< 1 µg/mL
same,clearance,[3],2 mL/min/kg
same,AUC,[4],23.7 µM·h
same,EC50,[5],> 7.5 µM
same,EC50,[6],8.4 µM
same,EC50,[7],> 100 µM
same,solubility kinetic,[8],< 1 µg/mL
same,EC50,[9],> 7.5 µM
same,IC50,[10],> 20 µM
